Test results reported in US20230085307A1, “PYRIDAZINONE COMPOUND AND HERBICIDE” (NISSAN CHEMICAL CORPORATION, priority 2019, published 2023).

Legend:
[1] = system: late watergrass; test: Test Example 1: herbicidal activity, application before weed generation under submerged conditions (Table 16, symbol A); type: in vivo, late watergrass (Echinochloa oryzicola); conditions: 320 g/ha applied herbicide
Procedure, shortened: (§1)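 Alluvial soil was flooded to 4 cm depth, weed seeds were sown mixed and 2.5-leaf rice seedlings were transplanted. On sowing day, the compound's emulsion, diluted in water to a set dose, was applied to the water surface. Plants grew at 25–30 °C and were scored 0–5 after three weeks.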

[2] = system: Japanese bulrush; test: Test Example 1: herbicidal activity, application before weed generation under submerged conditions (Table 16, symbol B); type: in vivo, Japanese bulrush (Schoenoplectus juncoides); conditions: 320 g/ha applied herbicide
Procedure, shortened: as §1

[3] = system: oval-leafed pondweed; test: Test Example 1: herbicidal activity, application before weed generation under submerged conditions (Table 16, symbol C); type: in vivo, oval-leafed pondweed (Monochoria vaginalis); conditions: 320 g/ha applied herbicide
Procedure, shortened: as §1

[4] = system: barnyard grass; test: Test Example 3: herbicidal effect by foliage application, Wagner pot (Table 18, symbol H); type: in vivo, barnyard grass (Echinochloa crus-galli); conditions: 320 g/ha
Procedure, shortened: (§2)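 Plants were sown in alluvial soil held under 0.1–0.5 cm standing water and grown 14 days in a greenhouse at 25–30 °C. An emulsifiable formulation, water-diluted to the set dose, was then sprayed onto the foliage, and effects were scored three weeks later using previously defined criteria.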

[5] = system: Chinese sprangletop; test: Test Example 3: herbicidal effect by foliage application, Wagner pot (Table 18, symbol D); type: in vivo, chinese sprangletop (Leptochloa chinensis); conditions: 320 g/ha
Procedure, shortened: as §2

[6] = system: rice flat sedge; test: Test Example 3: herbicidal effect by foliage application, Wagner pot (Table 18, symbol E); type: in vivo, rice flat sedge (Cyperus iria); conditions: 320 g/ha
Procedure, shortened: as §2

[7] = system: southern crabgrass; test: Test Example 4: herbicidal effect by soil treatment (Table 19, symbol F); type: in vivo, southern crabgrass (Digitaria ciliaris)
Procedure, shortened: (§3)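 Step 1: sow seeds in sterilized diluvial soil, cover ~1.5 cm. Step 2: spray diluted emulsion onto soil surface at predetermined rate. Step 3: greenhouse, 25–30° C, three weeks. Step 4: grade effect on each plant by earlier criteria.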

[8] = system: green foxtail; test: Test Example 4: herbicidal effect by soil treatment (Table 19, symbol G); type: in vivo, green foxtail (Setaria viridis)
Procedure, shortened: as §3

[9] = system: barnyard grass; test: Test Example 4: herbicidal effect by soil treatment (Table 19, symbol H); type: in vivo, barnyard grass (Echinochloa crus-galli)
Procedure, shortened: as §3

[10] = system: wild oat; test: Test Example 4: herbicidal effect by soil treatment (Table 19, symbol I); type: in vivo, wild oat (Avena fatua)
Procedure, shortened: as §3

[11] = system: blackgrass; test: Test Example 4: herbicidal effect by soil treatment (Table 19, symbol J); type: in vivo, blackgrass (Alopecurus myosuroides)
Procedure, shortened: as §3

[12] = system: Italian ryegrass; test: Test Example 4: herbicidal effect by soil treatment (Table 19, symbol K); type: in vivo, Italian ryegrass (Lolium multiflorum)
Procedure, shortened: as §3

[13] = system: windgrass; test: Test Example 4: herbicidal effect by soil treatment (Table 19, symbol L); type: in vivo, windgrass (Apera spica-venti)
Procedure, shortened: as §3

[14] = system: velvetleaf; test: Test Example 4: herbicidal effect by soil treatment (Table 19, symbol M); type: in vivo, velvetleaf (Abutilon theophrasti)
Procedure, shortened: as §3

[15] = system: redroot pigweed; test: Test Example 4: herbicidal effect by soil treatment (Table 19, symbol N); type: in vivo, redroot pigweed (Amaranthus retroflexus)
Procedure, shortened: as §3

[16] = system: lambsquarters; test: Test Example 4: herbicidal effect by soil treatment (Table 19, symbol O); type: in vivo, lambsquarters (Chenopodium album)
Procedure, shortened: as §3

[17] = system: chickweed; test: Test Example 4: herbicidal effect by soil treatment (Table 19, symbol P); type: in vivo, common chickweed (Stellaria media)
Procedure, shortened: as §3

[18] = system: false cleavers; test: Test Example 4: herbicidal effect by soil treatment (Table 19, symbol Q); type: in vivo, false cleavers (Galium spurium)
Procedure, shortened: as §3

[19] = system: persian speedwell; test: Test Example 4: herbicidal effect by soil treatment (Table 19, symbol R); type: in vivo, Persian speedwell (Veronica persica)
Procedure, shortened: as §3

[20] = system: southern crabgrass; test: Test Example 5: herbicidal effect by foliage application, plastic box (Table 20, symbol F); type: in vivo, southern crabgrass (Digitaria ciliaris); conditions: foliage application, 320 g/ha
Procedure, shortened: (§4)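 Foliar spray test: emulsion formulation diluted in water to a set application rate, sprayed onto 14-day-old plants raised in diluvial soil at 25° C to 30° C under glass. Both herbicidal effect and crop effect rated visually three weeks later.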

[21] = system: green foxtail; test: Test Example 5: herbicidal effect by foliage application, plastic box (Table 20, symbol G); type: in vivo, green foxtail (Setaria viridis); conditions: foliage application, 320 g/ha
Procedure, shortened: as §4

[22] = system: barnyard grass; test: Test Example 5: herbicidal effect by foliage application, plastic box (Table 20, symbol H); type: in vivo, barnyard grass (Echinochloa crus-galli); conditions: foliage application, 320 g/ha
Procedure, shortened: as §4

[23] = system: wild oat; test: Test Example 5: herbicidal effect by foliage application, plastic box (Table 20, symbol I); type: in vivo, wild oat (Avena fatua); conditions: foliage application, 320 g/ha
Procedure, shortened: as §4

[24] = system: blackgrass; test: Test Example 5: herbicidal effect by foliage application, plastic box (Table 20, symbol J); type: in vivo, blackgrass (Alopecurus myosuroides); conditions: foliage application, 320 g/ha
Procedure, shortened: as §4

[25] = system: Italian ryegrass; test: Test Example 5: herbicidal effect by foliage application, plastic box (Table 20, symbol K); type: in vivo, Italian ryegrass (Lolium multiflorum); conditions: foliage application, 320 g/ha
Procedure, shortened: as §4

[26] = system: windgrass; test: Test Example 5: herbicidal effect by foliage application, plastic box (Table 20, symbol L); type: in vivo, windgrass (Apera spica-venti); conditions: foliage application, 320 g/ha
Procedure, shortened: as §4

[27] = system: velvetleaf; test: Test Example 5: herbicidal effect by foliage application, plastic box (Table 20, symbol M); type: in vivo, velvetleaf (Abutilon theophrasti); conditions: foliage application, 320 g/ha
Procedure, shortened: as §4

[28] = system: lambsquarters; test: Test Example 5: herbicidal effect by foliage application, plastic box (Table 20, symbol O); type: in vivo, lambsquarters (Chenopodium album); conditions: foliage application, 320 g/ha
Procedure, shortened: as §4

[29] = system: false cleavers; test: Test Example 5: herbicidal effect by foliage application, plastic box (Table 20, symbol Q); type: in vivo, false cleavers (Galium spurium); conditions: foliage application, 320 g/ha
Procedure, shortened: as §4

[30] = system: persian speedwell; test: Test Example 5: herbicidal effect by foliage application, plastic box (Table 20, symbol R); type: in vivo, Persian speedwell (Veronica persica); conditions: foliage application, 320 g/ha
Procedure, shortened: as §4

[31] = system: redroot pigweed; test: Test Example 5: herbicidal effect by foliage application, plastic box (Table 20, symbol N); type: in vivo, redroot pigweed (Amaranthus retroflexus); conditions: foliage application, 320 g/ha, three weeks after application
Procedure, shortened: as §4

[32] = system: chickweed; test: Test Example 5: herbicidal effect by foliage application, plastic box (Table 20, symbol P); type: in vivo, common chickweed (Stellaria media); conditions: foliage application, 320 g/ha, three weeks after application
Procedure, shortened: as §4

[33] = amount of applied herbicide 320 g/ha

COc1nn(C)c(=O)c(-c2c(-c3ccc4c(c3)OCCO4)sc3ccccc23)c1O [1-198]
Herbicidal effect on A: late watergrass (grade 0-5) [1]: 3 (Herbicidal rate of 40% or more and less than 70%)
Herbicidal effect on B: Japanese bulrush (grade 0-5) [2]: 0 (Herbicidal rate of 5% or less (almost no effect))
Herbicidal effect on C: oval-leafed pondweed (grade 0-5) [3]: 0 (Herbicidal rate of 5% or less (almost no effect))
herbicidal effect on H (barnyard grass), rating 0-5 [4]: 5 (Herbicidal rate of 90% or more (almost completely withered))
herbicidal effect on D (Chinese sprangletop), rating 0-5 [5]: 3 (Herbicidal rate of 40% or more and less than 70%)
herbicidal effect on E (rice flat sedge), rating 0-5 [6]: 5 (Herbicidal rate of 90% or more (almost completely withered))
F: southern crabgrass, herbicidal effect rating ([7]; AAH 320 g/ha): 0 (Herbicidal rate of 5% or less (almost no effect))
G: green foxtail, herbicidal effect rating ([8]; AAH 320 g/ha): 5 (Herbicidal rate of 90% or more (almost completely withered))
H: barnyard grass, herbicidal effect rating ([9]; AAH 320 g/ha): 2 (Herbicidal rate of 20% or more and less than 40%)
I: wild oat, herbicidal effect rating ([10]; AAH 320 g/ha): 0 (Herbicidal rate of 5% or less (almost no effect))
J: blackgrass, herbicidal effect rating ([11]; AAH 320 g/ha): 0 (Herbicidal rate of 5% or less (almost no effect))
K: Italian ryegrass, herbicidal effect rating ([12]; AAH 320 g/ha): 0 (Herbicidal rate of 5% or less (almost no effect))
L: windgrass, herbicidal effect rating ([13]; AAH 320 g/ha): 0 (Herbicidal rate of 5% or less (almost no effect))
M: velvetleaf, herbicidal effect rating ([14]; AAH 320 g/ha): 5 (Herbicidal rate of 90% or more (almost completely withered))
N: redroot pigweed, herbicidal effect rating ([15]; AAH 320 g/ha): 0 (Herbicidal rate of 5% or less (almost no effect))
O: lambsquarters, herbicidal effect rating ([16]; AAH 320 g/ha): 0 (Herbicidal rate of 5% or less (almost no effect))
P: chickweed, herbicidal effect rating ([17]; AAH 320 g/ha): 5 (Herbicidal rate of 90% or more (almost completely withered))
Q: false cleavers, herbicidal effect rating ([18]; AAH 320 g/ha): 1 (Herbicidal rate of 5% or more and less than 20%)
R: persian speedwell, herbicidal effect rating ([19]; AAH 320 g/ha): 5 (Herbicidal rate of 90% or more (almost completely withered))
effect on southern crabgrass (F) ([20]; 3 weeks after application): 4 (Herbicidal rate of 70% or more and less than 90%)
effect on green foxtail (G) ([21]; 3 weeks after application): 4 (Herbicidal rate of 70% or more and less than 90%)
effect on barnyard grass (H) ([22]; 3 weeks after application): 2 (Herbicidal rate of 20% or more and less than 40%)
effect on wild oat (I) ([23]; 3 weeks after application): 0 (Herbicidal rate of 5% or less (almost no effect))
effect on blackgrass (J) ([24]; 3 weeks after application): 0 (Herbicidal rate of 5% or less (almost no effect))
effect on Italian ryegrass (K) ([25]; 3 weeks after application): 4 (Herbicidal rate of 70% or more and less than 90%)
effect on windgrass (L) ([26]; 3 weeks after application): 0 (Herbicidal rate of 5% or less (almost no effect))
effect on velvetleaf (M) ([27]; 3 weeks after application): 4 (Herbicidal rate of 70% or more and less than 90%)
effect on lambsquarters (O) ([28]; 3 weeks after application): 2 (Herbicidal rate of 20% or more and less than 40%)
effect on false cleavers (Q) ([29]; 3 weeks after application): 1 (Herbicidal rate of 5% or more and less than 20%)
effect on persian speedwell (R) ([30]; 3 weeks after application): 5 (Herbicidal rate of 90% or more (almost completely withered))

CON=C(C)c1ccc(-c2sc3ccccc3c2-c2c(O)c(C)nn(C)c2=O)cc1 [1-043]
herbicidal effect on H (barnyard grass), rating 0-5 [4]: 5 (Herbicidal rate of 90% or more (almost completely withered))
herbicidal effect on D (Chinese sprangletop), rating 0-5 [5]: 5 (Herbicidal rate of 90% or more (almost completely withered))
herbicidal effect on E (rice flat sedge), rating 0-5 [6]: 0 (Herbicidal rate of 5% or less (almost no effect))
herbicidal effect rating, F: southern crabgrass [7, 33]: 0 (Herbicidal rate of 5% or less (almost no effect))
herbicidal effect rating, G: green foxtail [8, 33]: 5 (Herbicidal rate of 90% or more (almost completely withered))
herbicidal effect rating, H: barnyard grass [9, 33]: 3 (Herbicidal rate of 40% or more and less than 70%)
herbicidal effect rating, I: wild oat [10, 33]: 0 (Herbicidal rate of 5% or less (almost no effect))
herbicidal effect rating, J: blackgrass [11, 33]: 0 (Herbicidal rate of 5% or less (almost no effect))
herbicidal effect rating, K: Italian ryegrass [12, 33]: 5 (Herbicidal rate of 90% or more (almost completely withered))
herbicidal effect rating, L: windgrass [13, 33]: 0 (Herbicidal rate of 5% or less (almost no effect))
herbicidal effect rating, M: velvetleaf [14, 33]: 0 (Herbicidal rate of 5% or less (almost no effect))
herbicidal effect rating, N: redroot pigweed [15, 33]: 5 (Herbicidal rate of 90% or more (almost completely withered))
herbicidal effect rating, O: lambsquarters [16, 33]: 5 (Herbicidal rate of 90% or more (almost completely withered))
herbicidal effect rating, P: chickweed [17, 33]: 4 (Herbicidal rate of 70% or more and less than 90%)
herbicidal effect rating, Q: false cleavers [18, 33]: 0 (Herbicidal rate of 5% or less (almost no effect))
herbicidal effect rating, R: persian speedwell [19, 33]: 4 (Herbicidal rate of 70% or more and less than 90%)
herbicidal effect grade, F: southern crabgrass ([20]; three weeks after application): 4 (Herbicidal rate of 70% or more and less than 90%)
herbicidal effect grade, G: green foxtail ([21]; three weeks after application): 4 (Herbicidal rate of 70% or more and less than 90%)
herbicidal effect grade, H: barnyard grass ([22]; three weeks after application): 3 (Herbicidal rate of 40% or more and less than 70%)
herbicidal effect grade, I: wild oat ([23]; three weeks after application): 2 (Herbicidal rate of 20% or more and less than 40%)
herbicidal effect grade, J: blackgrass ([24]; three weeks after application): 4 (Herbicidal rate of 70% or more and less than 90%)
herbicidal effect grade, K: Italian ryegrass ([25]; three weeks after application): 5 (Herbicidal rate of 90% or more (almost completely withered))
herbicidal effect grade, L: windgrass ([26]; three weeks after application): 1 (Herbicidal rate of 5% or more and less than 20%)
herbicidal effect grade, M: velvetleaf ([27]; three weeks after application): 5 (Herbicidal rate of 90% or more (almost completely withered))
herbicidal effect grade, N: redroot pigweed [31]: 5 (Herbicidal rate of 90% or more (almost completely withered))
herbicidal effect grade, O: lambsquarters ([28]; three weeks after application): 4 (Herbicidal rate of 70% or more and less than 90%)
herbicidal effect grade, P: chickweed [32]: 5 (Herbicidal rate of 90% or more (almost completely withered))
herbicidal effect grade, Q: false cleavers ([29]; three weeks after application): 2 (Herbicidal rate of 20% or more and less than 40%)
herbicidal effect grade, R: persian speedwell ([30]; three weeks after application): 5 (Herbicidal rate of 90% or more (almost completely withered))
